Like-named read-outs stand apart in the source and are kept apart here.
What was measured:
Type in all cases: cell-based
[1] = molecular target: T1, human GLP-2R (Homo sapiens, UniProt O95838); test: HitHunter cAMP assay in transiently transfected COS-7 cells, human GLP-2R; settings: Emax normalized to highest concentration of endogenous ligand; Table 2;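 note: cells kept 30 min at 37 °C in buffer with 1 mM IBMX, then given ligand for another 30 min at 37 °C before cAMP readout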
T1 construct: host or cells: COS-7
T1 sequence (O95838 1-553): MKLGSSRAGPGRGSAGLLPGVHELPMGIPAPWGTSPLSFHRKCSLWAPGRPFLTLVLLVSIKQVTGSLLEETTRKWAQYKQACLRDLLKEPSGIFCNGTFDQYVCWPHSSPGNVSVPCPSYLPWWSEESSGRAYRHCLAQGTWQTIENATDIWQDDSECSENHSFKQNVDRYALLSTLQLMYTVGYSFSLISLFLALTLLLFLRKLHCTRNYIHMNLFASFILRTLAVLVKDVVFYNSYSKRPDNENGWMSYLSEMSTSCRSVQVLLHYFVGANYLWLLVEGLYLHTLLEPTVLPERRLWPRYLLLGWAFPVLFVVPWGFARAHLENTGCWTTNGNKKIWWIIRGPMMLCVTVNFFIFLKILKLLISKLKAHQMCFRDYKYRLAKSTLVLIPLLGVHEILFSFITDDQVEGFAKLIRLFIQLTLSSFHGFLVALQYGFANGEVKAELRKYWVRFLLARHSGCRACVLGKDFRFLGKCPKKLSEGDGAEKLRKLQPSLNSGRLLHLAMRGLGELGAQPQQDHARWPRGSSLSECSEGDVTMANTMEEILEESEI
Description: COS-7 cells were cultured at 10% CO2 and 37° C. in Dulbecco's Modified Eagle Medium (DMEM) 1885 supplemented with 10% fetal bovine serum (FBS), 2 mM glutamine, 180 units/ml penicillin, and 45 g/ml streptomycin.
The next day the assay was initiated by washing with HEPES buffered saline (HBS) and followed by an incubation step with assay buffer (HBS added 1 mM isobutyl-1-methylxanthine (IBMX)) for 30 min at 37° C. The ligands were then added and incubated for an additional 30 min at 37° C. After ligand incubation, the HitHunter® CAMP assay (Eurofins DiscoverX, Fremont, 150 USA) was carried out according to the manufacturer's instructions. Luminescence was measured by PerkinElmer™ EnVision 2014 Multilabel Reader (PerkinElmer, Waltham, MA). The potencies (EC50 values) were determined by nonlinear regression using GraphPad Prism 9 (San Diego, California, USA). Sigmoid curves were fitted logistically. The efficacies (Emax values) were determined by normalization to the highest concentration applied of the endogenous ligand for each receptor.

[2] = molecular target: T2, human GLP-1R (Homo sapiens, UniProt P43220); test: HitHunter cAMP assay in transiently transfected COS-7 cells, human GLP-1R; settings: Emax normalized to highest concentration of endogenous ligand; Table 3
T2 construct: host or cells: COS-7
T2 sequence (P43220 24-463): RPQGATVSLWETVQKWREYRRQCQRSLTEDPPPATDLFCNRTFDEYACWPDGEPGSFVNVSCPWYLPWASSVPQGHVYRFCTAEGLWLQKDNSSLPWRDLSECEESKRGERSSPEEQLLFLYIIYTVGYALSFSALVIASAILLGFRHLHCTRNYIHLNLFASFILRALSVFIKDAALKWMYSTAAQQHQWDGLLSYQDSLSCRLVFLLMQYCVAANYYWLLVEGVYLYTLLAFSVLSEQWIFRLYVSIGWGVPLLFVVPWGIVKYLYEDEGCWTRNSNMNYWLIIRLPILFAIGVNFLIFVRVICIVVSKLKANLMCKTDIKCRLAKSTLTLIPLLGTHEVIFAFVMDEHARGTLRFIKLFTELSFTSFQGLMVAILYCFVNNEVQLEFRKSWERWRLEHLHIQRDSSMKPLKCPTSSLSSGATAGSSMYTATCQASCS
Description: (§1) The next day the assay was initiated by washing with HEPES buffered saline (HBS) and followed by an incubation step with assay buffer (HBS added 1 mM isobutyl-1-methylxanthine (IBMX)) for 30 min at 37° C. The ligands were then added and incubated for an additional 30 min at 37° C. After ligand incubation, the HitHunter® CAMP assay (Eurofins DiscoverX, Fremont, […] USA) was carried out according to the manufacturer's instructions. Luminescence was measured by PerkinElmer™ EnVision 2014 Multilabel Reader (PerkinElmer, Waltham, MA). The potencies (EC50 values) were determined by nonlinear regression using GraphPad Prism 9 (San Diego, California, USA). Sigmoid curves were fitted logistically. The efficacies (Emax values) were determined by normalization to the highest concentration applied of the endogenous ligand for each receptor.

[3] = molecular target: T3, rat GIPR (Rattus norvegicus, UniProt P43219); test: HitHunter cAMP assay in transiently transfected COS-7 cells, rat GIPR; settings: Emax normalized to highest concentration of endogenous ligand
T3 construct: expressed in transfected cells; host or cells: COS-7
T3 sequence (P43219 19-455): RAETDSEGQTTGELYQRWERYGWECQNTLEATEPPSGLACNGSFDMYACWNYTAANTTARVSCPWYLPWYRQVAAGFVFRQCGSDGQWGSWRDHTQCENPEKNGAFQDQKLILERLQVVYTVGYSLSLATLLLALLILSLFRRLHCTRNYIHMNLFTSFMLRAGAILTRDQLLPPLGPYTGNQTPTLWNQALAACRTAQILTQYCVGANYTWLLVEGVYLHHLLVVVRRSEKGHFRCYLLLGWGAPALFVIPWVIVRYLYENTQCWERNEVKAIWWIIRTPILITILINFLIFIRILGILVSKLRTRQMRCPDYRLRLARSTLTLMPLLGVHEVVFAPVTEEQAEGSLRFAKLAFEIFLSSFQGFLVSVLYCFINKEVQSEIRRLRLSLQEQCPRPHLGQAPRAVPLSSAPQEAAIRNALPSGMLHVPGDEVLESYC
Description: as §1

[4] = molecular target: T4, rat GLP-2R (Rattus norvegicus, UniProt Q9Z0W0); test: HitHunter cAMP assay in transiently transfected COS-7 cells, rat GLP-2R; settings: Emax normalized to highest concentration of endogenous ligand
T4 construct: expressed in transfected cells; host or cells: COS-7
T4 sequence (Q9Z0W0 1-550): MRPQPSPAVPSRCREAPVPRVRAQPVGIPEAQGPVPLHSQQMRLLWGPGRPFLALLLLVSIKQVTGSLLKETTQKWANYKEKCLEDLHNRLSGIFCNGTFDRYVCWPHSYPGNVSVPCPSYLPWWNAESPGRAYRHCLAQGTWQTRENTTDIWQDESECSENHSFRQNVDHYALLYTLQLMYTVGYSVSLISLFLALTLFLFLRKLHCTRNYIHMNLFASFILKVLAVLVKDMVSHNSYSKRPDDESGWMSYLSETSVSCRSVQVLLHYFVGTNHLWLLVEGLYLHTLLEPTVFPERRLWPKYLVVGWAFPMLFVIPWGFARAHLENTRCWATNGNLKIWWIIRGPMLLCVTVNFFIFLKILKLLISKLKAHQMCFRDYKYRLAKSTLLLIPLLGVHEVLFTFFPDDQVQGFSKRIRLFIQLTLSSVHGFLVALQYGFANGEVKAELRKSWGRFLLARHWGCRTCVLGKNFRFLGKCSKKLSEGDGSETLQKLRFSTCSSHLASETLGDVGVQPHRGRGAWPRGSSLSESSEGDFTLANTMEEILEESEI
Description: as §1

[5] = molecular target: T5, human GIPR (Homo sapiens, UniProt P48546); set-up: host or cells: COS-7; settings: Emax normalized to highest concentration of endogenous ligand; Table 2
T5 sequence (P48546 22-466): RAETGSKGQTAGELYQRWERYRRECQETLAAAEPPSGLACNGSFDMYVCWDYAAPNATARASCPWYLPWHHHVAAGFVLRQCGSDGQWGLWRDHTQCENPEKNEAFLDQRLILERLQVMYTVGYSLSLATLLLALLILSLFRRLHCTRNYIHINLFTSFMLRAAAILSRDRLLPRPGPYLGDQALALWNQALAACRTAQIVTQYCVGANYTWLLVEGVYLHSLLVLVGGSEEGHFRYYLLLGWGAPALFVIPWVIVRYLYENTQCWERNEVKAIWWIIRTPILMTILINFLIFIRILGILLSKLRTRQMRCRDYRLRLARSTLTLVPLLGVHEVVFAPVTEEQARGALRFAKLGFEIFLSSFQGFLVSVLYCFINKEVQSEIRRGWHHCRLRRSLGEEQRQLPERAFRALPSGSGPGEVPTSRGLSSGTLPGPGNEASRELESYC

[6] = molecular target: T6, human SNAP-GIPR (Homo sapiens, UniProt P48546); set-up: AUC ± SD: unit not given beside the values; settings: for Emax ± SD (%): NA = no activity
T6 construct: host or cells: HEK293A
T6 sequence (P48546 22-466): T5 sequence (P48546 22-466)

[7] = molecular target: T5, human GIPR; set-up: host or cells: HEK293; settings: beta-arrestin 2 recruitment; for AUC ± SD: AUC of sigmoid curves up to 100 nM; for Emax ± SD (%): normalized to highest concentration of GIP, NA = no activity
Description: HEK293 cells were cultured at 10% CO2 and 37° C. in DMEM-GlutaMAX™-I supplemented with 10% FBS, 180 units/mL penicillin and 45 g/mL streptomycin. These cells were transfected using PEI for the beta-arrestin recruitment assay as described in detail in (van der Velden et al., 2021).
HEK293 cells were transiently transfected with human GIPR, the donor Rluc8-Arrestin-3-Sp1 (beta-arrestin 2 recruitment), the acceptor mem-linker-citrine-SH3, and the GPCR kinase 2 (GRK2). Two days following transfection, the cells were washed with PBS and resuspended in PBS with 5 mM glucose. Then, 85 μL of the cell suspension solution was added to each well of a white 96-well plate followed by the addition of PBS with 5 μM coelenterazine-h. Following 10 min incubation, increasing concentrations of ligands were added and incubated for an additional 30 min. Luminescence was measured with the Berthold Technologies Mithras Multilabel Reader (Rluc8 at 485±40 nm and YFP at 530±25 nm). The potencies (EC50 values) were determined by nonlinear regression using GraphPad Prism 9 (San Diego, California, USA). Sigmoid curves were fitted logistically. The efficacies (Emax values) were determined by normalization to the highest concentration applied of the endogenous ligand (GIP) for the GIPR.

[8] = system: macaque GIPR; test: HitHunter cAMP assay in transiently transfected COS-7 cells, macaque GIPR
Description: as §1

| Substance | Efficacy GLP-2R [1] | Efficacy GLP-1R [2] | rGIPR Efficacy (%) [3] [%] | rGLP-2R Efficacy (%) [4] [%] | Efficacy GIPR [5] | AUC ± SD ([6]; GIPR internalization, AUC of sigmoid curves up to 1 μM) | Emax ± SD (%) ([6]; GIPR internalization) | AUC ± SD [6] | AUC ± SD [7] | Emax ± SD (%) [7] [%] | maGIPR Efficacy (%) ([8]; Emax normalized to highest concentration of the endogenous ligand, COS-7 cells) | maGIPR pEC50 ([8]; cAMP, transiently transfected COS-7 cells) |
| --- | --- | --- | --- | --- | --- | --- | --- | --- | --- | --- | --- | --- |
| (C10)H-Aib-DGTFISDYST-Aib-LDNLAARDFINWLIQTKITK-OH [Compound no. 44] | 100 | 19 | 87.3 | 90.0 | 110 | – | – | – | – | – | – | – |
| (C16)HADGTFISDYSTAibLDNLAARDFINWLIQTKITKNDWKHNITQ [Compound no. 53] | 79 | – | 77.3 | 18.0 | 90 | – | – | – | – | – | – | – |
| Ac-H-Aib-DGTFISDYS-K(γGlu-C16)-Aib-LDNLAARDFINWLIQTKITK-OH [Compound no. 36] | 76 | 19 | – | – | 92 | 47 ± 1 | 58 ± 8 | – | – | – | – | – |
| H-Aib-DG-K(γGlu-C10)-FISDYST-Aib-LDNLAARDFINWLIQTKITK-OH [Compound no. 24] | 90 | – | 96.3 | 76.3 | 113 | – | 68 ± 3 | 113 ± 4 | 117 ± 31 | 57 ± 16 | – | – |
| H-Aib-DG-K(γGlu-C16 diacid)-FISDYST-Aib-LDNLAARDFINWLIQTKITK-OH [Compound no. 25] | 88 | – | 71.7 | 65.0 | 93 | – | 46 ± 2 | 57 ± 2 | 42 ± 15 | 23 ± 7 | – | – |
| H-Aib-DG-K(γGlu-C16)-FISDYSTILDNLAARDFINWLIQTKITK-OH [Compound no. 9] | 91 | 32 | 74.3 | 82.0 | 110 | – | – | – | – | – | – | – |
| H-Aib-DGTFISDY-K(yglu-C10)-T-Aib-LDNLAARDFINWLIQTKITGNDWKHNITQ-OH [Compound no. 54] | 87 | 8 | 110.3 | 108.0 | 86 | – | – | – | – | – | 71.8 | 7.7 |
| H-Aib-DGTFISDY-K(γGlu-C10)-TILDKLAARDFIEWLIATKITK-OH [Compound no. 31] | 90 | 6 | 85.0 | 86.3 | 89 | – | – | 0 | 0 | – | – | – |

From patent publication US20250304643A1, “PEPTIDE DUAL AGONISTS OF GIPR AND GLP2R” (BAINAN BIOTECH APS, priority 2021, published 2025)
